Where “and” joins values, the source holds several entries; their conditions need not be identical. Identical values can stand only once. Where no end group is shown, it is not given here.
Legend:
[1] = tested on: HTCA; test: ELISA binding of immunoglobulins to HTCA-coated plates; details: Plates coated with HTCA
Method: (§1) Two peptides complementary to ACTH, described in Examples 1B and 1C as HTCA and 3'-5' HTCA, were each coupled to Keyhole Limpet Hemocyanin (KLH) with glutaraldeyde (1 mg peptide, 1 mg KLH, 30 mM glutaraldehyde for 30 minutes at room temperature followed by dialysis) to prepare antigens for rabbit immunization. Two rabbits were injected separately with 250 ug of peptide-KLH antigens weekly for four weeks. Each rabbit was bled biweekly for three weeks following the last injection. Antibodies representing the total immunoglobulin from serum of each rabbit was purified by precipitation from serum with 50% saturated ammonium sulfate at 4° C. followed by standard ion exchange chromatography on a DEAE column.
To examine the binding of each of the immunoglobulins to each of the peptides, enzyme-linked immunosorbant assays were performed. In these assays, one of the complementary peptides was coated onto polycarbonate plates in a carbonate coating buffer at pH 9.0 overnight. Unbound peptide was removed by washing three times with phosphate buffered saline (PBS)-TWEEN 20. Various amounts of immunoglobulins were added to peptide-coated wells in PBS-TWEEN 20 solution and incubated for one hour. Unbound immunoglobulin was removed by washing with PBS-TWEEN 20. To each well was added a 1:300 dilution of goat anti-rabbit IgG coupled to alkaline phosphatase enzyme. After one hour the wells were washed with PBS-TWEEN 20 to remove unbound secondary antibodies. The amount of remaining secondary antibody was determined by reacting p-nitrophenyl phosphate with the remaining aklaline phosphatase enzyme for 15 minutes, stopping the reaction with 3M NaOH, and measuring nitrophenol produced spectrophotometrically at 490 nm.

[2] = target: T1, I^125 ACTH (1-39) (Homo sapiens, UniProt P01189); test: ^125 I-ACTH binding to peptide-coated microtiter wells
T1 construct: I^125 ACTH (1-39) (New England Nuclear Boston, MA); purchased New England Nuclear (Boston, MA)
T1 sequence (P01189 138-176 limits assumed): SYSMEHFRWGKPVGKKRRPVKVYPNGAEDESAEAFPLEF
Method: Utilizing techniques described in Example 1B, polyvinyl microtiter wells were coated with 3'-5' HTCA from a 1 mM solution thereof or with BSA.
The BSA and 3'-5' HTCA coated wells were washed and then treated with one of three solutions of I^125 ACTH (1-39) (New England Nuclear Boston, MA) having different concentrations. After a forty five minute incubation period the solution was removed and the microtiter wells extensively washed. The microtiter wells were separated and assayed for iodine^125content in a Beckman Gamma 5500 gamma counter. Bound ^125 I-ACTH was measured in duplicate at three concentrations in the absence and presence of excess unlabelled ACTH.
Utilizing the cRNA sequence and HTCA sequence shown in Table 8 of Example 1A, a series of peptides having a carboxy-terminal portion of the HTCA amino acid were synthesized. A pentamer (5-mer) contained the amino acid sequence: H2 N-Phe-His-Gly-Val-Arg-COOH. A decamer (10-mer) contained the amino acid sequence: H2 N-[…]COOH. A twenty membered peptide (20-mer) contained the amino acids sequence: H2 N-[…] Val-Arg-COOH. Each of thes peptides was used to coat microtiter wells and the coated wells tested for the ability to bind ^125 I-ACTH as described in Example 1C.
A 24-mer HTCA variant (R-HTCA) with reversed amino acid sequence directionality (amino-terminal and carboxy-terminal ends being reversed) was synthesized and had the following sequence: H2 N-[…] Arg-His-Leu-His-Val-Gly-COOH. The well-coating and ^125 I-ACTH binding procedures were performed as described in Example 1-C and the resultant data shown in Table 11.

[3] = target: T2, ^125 I-ACTH (Homo sapiens, UniProt P01189); test: Solid-phase binding of ^125 I-ACTH to 5'-3' and 3'-5' complementary peptides
T2 construct: ACTH plates+immunized rabbit immunoglobulin
T2 sequence (P01189 138-176 limits assumed): T1 sequence (P01189 138-176 limits assumed)
Method: A solid-phase binding assay was used to determine the ability of both the 5'-to-3' and the 3'-to-5'-complementary-RNA-strand peptides (see Examples 1A and 1C) to bind ^125 I-ACTH. The peptides were diluted in phosphate-buffered saline (140 mM-NaCl/3 mM-KCl/0.1% NaN3 /20 mM-phosphate buffer, pH 7.4) to 2 mg/ml, and 0.2 ml/well was placed into poly(vinyl chloride) micro-titre plates (Becton and Dickinson, Oxnard, CA, U.S.A.). After 18 h at 4° C., unbound peptide was removed by washing three times with phosphate-buffered saline containing 0.1% bovine serum albumin (Sigma Chemical Co., St. Louis, MO, U.S.A.). ^125 I-ACTH was diluted to various concentrations with phosphate-buffered saline containing 0.1% bovine serum albumin and incubated in peptide-coated wells for 60 minutes at 4° C. […] After incubation, unbound radiolabel was washed out with phosphate-buffered saline containing 0.1% bovine serum albumin, and the radioactivity of individual wells was measured by gamma-radiation counting. The amount of specifically bound radioactivity was determined by blocking ^125 I-ACTH binding with unlabelled ACTH. Additional controls included coating wells with insulin or bovine serum albumin (2 mg/ml) before the addition of the ^125 I-ACTH.

[4] = tested on: 3'-5' HTCA; test: ELISA binding of immunoglobulins to 3'-5' HTCA-coated plates; details: Plates coated with 3'-5' HTCA; antibody 0.11 mg/ml
Method: as §1
To examine the binding of each of the immunoglobulins to each of the peptides, enzyme-linked immunosorbant assays were performed. In these assays, one of the complementary peptides was coated onto polycarbonate plates in a carbonate coating buffer at pH 9.0 overnight. Unbound peptide was removed by washing three times with phosphate buffered saline (PBS)-TWEEN 20. […] The amount of remaining secondary antibody was determined by reacting p-nitrophenyl phosphate with the remaining aklaline phosphatase enzyme for 15 minutes, stopping the reaction with 3M NaOH, and measuring nitrophenol produced spectrophotometrically at 490 nm.

[5] = tested on: angiotensin II receptors; test: Binding of [^125 I] angiotensin II to isolated hepatic receptor; set-up: species or system Rabbit; details: concentration that inhibits binding of radiolabelled angiotensin II by 50%; 0.25 nM label; 60 minutes at 20° C.
Method: Rabbit livers were homogenized, and were centifuged in order to isolate particles sedimenting between 1,000 and 100,000 xg. Binding activity was solublized with 1% digitonin, followed by ammonium sulfate fractionation between 49 and 65% satuation followed by DEAE- cellulose chromatography at pH 7.5 using a linear gradient between 0.0 and 0.3M KCl.
The reaction is initiated by addition of the receptor and samples are incubated for 60 minutes at 20° C. The reaction is terminated with 1 ml of cold 0.5% charcoal/0.05% Dextran in 100 mM Tris-HCl, pH 7.5.
The complete system under these conditions regularly yields about 10,000 cpm of bound radioactivity.

Absorbance at 490 nm ([1]; antibody 0.04 mg/ml)	Absorbance at 490 nm ([1]; antibody 0.11 mg/ml)	Absorbance at 490 nm ([1]; antibody 0.3 mg/ml)	Absorbance at 490 nm ([1]; antibody added 0.012 mg/ml)	binding of ^125 I-ACTH to coated wells (in words) [2]	Bound CPM - ^125 I-ACTH ([2]; 1:3 dilution ^125 I-ACTH)	Bound CPM - ^125 I-ACTH ([2]; 1:3 dilution ^125 I-ACTH, + Excess ACTH)	Bound CPM - ^125 I-ACTH ([2]; 1:9 dilution ^125 I-ACTH, + Excess ACTH)	Bound CPM - ^125 I-ACTH ([2]; conc ^125 I-ACTH)	Bound CPM - ^125 I-ACTH ([2]; conc ^125 I-ACTH, + Excess ACTH)	effectiveness in binding ACTH (in words) [3]	Absorbance at 490 nm [4]	ID50 [5]	Substance
0.24 ± 0.08	0.37 ± 0.09	0.91 ± 0.11	0.08 ± 0.04	binds to coated 3'-5' HTCA	601 CPM and 590 CPM	287 CPM and 299 CPM	191 CPM and 183 CPM	1819 CPM and 1716 CPM	616 CPM and 615 CPM	equally effective in binding ACTH	0.89 ± 0.23		RMRYLVKATPFGHPFFAAGHFHMG [3'-5' HTCA]
												3,100 nM	Ac-KGVYIHAL-NH2 [CCA-AII (Ac, Am), Ac--LYS--GLY--VAL--TYR--ILE--HIS--ALA--LEU--Am]
